How the values were obtained:
[1] = target: recombinant RSK2 kinase (Homo sapiens (Human), UniProt P51812); assay: LANCE Eu TR-FRET recombinant RSK2 kinase inhibition assay; type: biochemical; settings: for IC50: recombinant RSK2, 3 μM ATP, mean ± S.D. (n=3)
Description: All reagents were prepared in kinase buffer containing 2 mM DTT, 50 mM HEPES, 1 mM EGTA, 10 mM MgCl2, 0.01% Tween 20, pH 7.5. […] RSK2 was used at a final concentration of […]. […] Assays were performed at 25° C. in a reaction mixture consisting of 2 μL serially diluted inhibitor solution, 4 μL kinase, 2 μL substrate, and 2 μL ATP. Reagents were incubated at room temperature for 1 h before the reaction was stopped through the addition of 5 μL of EDTA at a final concentration of 10 mM.
The exemplary compounds were evaluated for their effect on RSK2 activity in the recombinant TR-FRET kinase inhibition assay and their half-maximal inhibitory potency values (IC50) were calculated using nonlinear regression analysis of the log dose-response.

[2] = test system: MOLM-13 cells; assay: MTS cellular viability assay in MOLM-13 cells; type: cell-based; settings: Homo sapiens, 72 hr, 60 μM to 250 nM, n=3, ±S.D.
Description: Cell Culture: MOLM-13 (DSMZ) cells were cultured in RPMI1640 (Gibco) supplemented with 10% FBS (Sigma Aldrich) and 1% penicillin/streptomycin solution (Cellgro) at 37° C. in an incubator humidifier with 95% air and 5% CO2. HEK293 cells (ATCC) were cultured in Dulbecco's Modified Eagle Medium (DMEM; Gibco) supplemented with 10% FBS (Sigma Aldrich) and 1% penicillin/streptomycin solution (Cellgro) at 37° C. in an incubator humidifier with 95% air and 5% CO2. HEK293 cells were allowed to adhere for 24 h prior to use in assays.
MTS Cellular Viability Assay: MOLM-13 cells were seeded into sterile 96-well plates (Corning) at 60,000 cells per well in 100 μL of media. Inhibitor solutions were administered in 50 μL over a concentration range from 60 μM to 247 nM and cells were incubated at 37° C. for 24 to 72 h. Following 3 h incubation with 30 μL CellTiter 96® Aqueous One Cell Proliferation Reagent (Promega), cell viability was measured by formazan concentration assessment through colorimetric analysis using a BioTek Synergy H1 Hybrid plate reader (Absorption=490).
Exemplary compounds were assessed in cell systems for effects on cell viability, as well as their ability to inhibit cellular RSK2 activity.

recombinant RSK2 kinase, sequence (P51812 whole entry): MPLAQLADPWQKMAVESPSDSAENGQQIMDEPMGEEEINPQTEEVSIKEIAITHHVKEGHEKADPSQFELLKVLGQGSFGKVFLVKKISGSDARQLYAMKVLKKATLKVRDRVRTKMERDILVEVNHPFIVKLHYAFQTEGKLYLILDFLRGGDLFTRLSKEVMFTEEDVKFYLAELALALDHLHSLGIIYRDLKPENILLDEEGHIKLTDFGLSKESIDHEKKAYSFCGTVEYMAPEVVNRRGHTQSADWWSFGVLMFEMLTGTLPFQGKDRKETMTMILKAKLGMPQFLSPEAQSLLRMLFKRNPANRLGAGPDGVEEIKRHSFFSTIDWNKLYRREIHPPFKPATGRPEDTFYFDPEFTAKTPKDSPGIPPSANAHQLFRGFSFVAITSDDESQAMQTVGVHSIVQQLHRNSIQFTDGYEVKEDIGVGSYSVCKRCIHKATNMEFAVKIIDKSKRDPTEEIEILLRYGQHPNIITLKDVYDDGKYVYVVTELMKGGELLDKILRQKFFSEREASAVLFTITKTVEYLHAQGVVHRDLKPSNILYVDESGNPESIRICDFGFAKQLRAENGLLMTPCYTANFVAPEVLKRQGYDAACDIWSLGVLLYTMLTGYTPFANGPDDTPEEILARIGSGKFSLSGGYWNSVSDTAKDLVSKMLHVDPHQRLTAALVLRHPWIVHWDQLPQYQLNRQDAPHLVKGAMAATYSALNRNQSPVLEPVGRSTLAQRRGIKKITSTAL

| IC50 [1] [nM] | EC50 [2] [nM] | activity rank in the recombinant kinase assay ([1]; statement in pharmacophore modeling text) | Compound |
| --- | --- | --- | --- |
| 55.5 ± 5.6 | 970 ± 100 |  | CC(C)CCn1cnc2cnc(Nc3cc(F)c(O)c(F)c3)nc21 [A1-2, 2,6-Difluoro-4-((9-isopentyl-9H-purin-2-yl)amino)phenol] |
| 24.6 ± 3 |  |  | Oc1c(F)cc(Nc2ncc3ncn(-c4ccc(N5CCOCC5)cc4)c3n2)cc1F [A1-3, 2,6-Difluoro-4-((9-(4-morpholinophenyl)-9H-purin-2-yl)amino)phenol] |
| 18.4 ± 4 | 1900 ± 70 |  | Oc1c(F)cc(Nc2ncc3ncn(-c4ccc(CCN5CCOCC5)cc4)c3n2)cc1F [A1-4, 2,6-Difluoro-4-((9-(4-(2-morpholinoethyl)phenyl)-9H-purin-2-yl)amino)phenol] |
| 329 ± 37 |  |  | Oc1c(F)cc(Nc2ncc3ncn(-c4cccc(Oc5ccccc5)c4)c3n2)cc1F [A1-6, 2,6-Difluoro-4-((9-(3-phenoxyphenyl)-9H-purin-2-yl)amino)phenol] |
| 148 ± 27 |  |  | Oc1c(F)cc(Nc2ncc3ncn(-c4ccc(Oc5ccccc5)cc4)c3n2)cc1F [A1-7, 2,6-Difluoro-4-((9-(4-phenoxyphenyl)-9H-purin-2-yl)amino)phenol] |
| 79.8 ± 4.6 |  |  | Oc1cccc(-n2cnc3cnc(Nc4cc(F)c(O)c(F)c4)nc32)c1 [A1-10, 2,6-Difluoro-4-((9-(3-hydroxyphenyl)-9H-purin-2-yl)amino)phenol] |
| 81.8 ± 0.7 |  |  | Oc1ccc(-n2cnc3cnc(Nc4cc(F)c(O)c(F)c4)nc32)cc1 [A1-11, 2,6-Difluoro-4-((9-(4-hydroxyphenyl)-9H-purin-2-yl)amino)phenol] |
| 15.7 ± 4 |  |  | COC(=O)CCc1ccc(-n2cnc3cnc(Nc4cc(F)c(O)c(F)c4)nc32)cc1 [A1-12, Methyl 3-(4-(2-((3,5-difluoro-4-hydroxyphenyl)amino)-9H-purin-9-yl)phenyl)-propanoate] |
| 17.8 ± 1 | 13900 ± 700 | most active molecule | COC(=O)CCCc1ccc(-n2cnc3cnc(Nc4cc(F)c(O)c(F)c4)nc32)cc1 [A1-13, Methyl 4-(4-(2-((3,5-difluoro-4-hydroxyphenyl)amino)-9H-purin-9-yl)phenyl)butanoate] |
| 95.8 ± 11 | 1300 ± 60 |  | CC(C)CCn1ccc2cnc(Nc3cc(F)c(O)c(F)c3)nc21 [A1-15, 2,6-Difluoro-4-((7-isopentyl-7H-pyrrolo[2,3-d]pyrimidin-2-yl)amino)phenol] |
| 25.7 ± 2.4 | 230 ± 3 |  | Oc1c(F)cc(Nc2ncc3ccn(-c4ccc(N5CCOCC5)cc4)c3n2)cc1F [A1-16, 2,6-Difluoro-4-((7-(4-morpholinophenyl)-7H-pyrrolo[2,3-d]pyrimidin-2-yl)amino)phenol] |
| 34.7 ± 1.3 | 70 ± 3 |  | CN1CCN(c2ccc(-n3ccc4cnc(Nc5cc(F)c(O)c(F)c5)nc43)cc2)CC1 [A1-17, 2,6-Difluoro-4-((7-(4-(4-methylpiperazin-1-yl)phenyl)-7H-pyrrolo[2,3-d]pyrimidin-2-yl)amino)phenol] |

Source: US11851436B2, “Fused bicyclic pyrimidine derivatives and uses thereof” (The Regents of the University of Colorado, A Body Corporate, priority 2021, dated 2023)
